Measurements from paper PMC5206433 (BioMed Research International, 2016).

Molecular target: integrin αIIbβ3 (Homo sapiens, UniProt P05106+P08514)
Format: binding

Chain of integrin αIIbβ3 (P08514 32-887): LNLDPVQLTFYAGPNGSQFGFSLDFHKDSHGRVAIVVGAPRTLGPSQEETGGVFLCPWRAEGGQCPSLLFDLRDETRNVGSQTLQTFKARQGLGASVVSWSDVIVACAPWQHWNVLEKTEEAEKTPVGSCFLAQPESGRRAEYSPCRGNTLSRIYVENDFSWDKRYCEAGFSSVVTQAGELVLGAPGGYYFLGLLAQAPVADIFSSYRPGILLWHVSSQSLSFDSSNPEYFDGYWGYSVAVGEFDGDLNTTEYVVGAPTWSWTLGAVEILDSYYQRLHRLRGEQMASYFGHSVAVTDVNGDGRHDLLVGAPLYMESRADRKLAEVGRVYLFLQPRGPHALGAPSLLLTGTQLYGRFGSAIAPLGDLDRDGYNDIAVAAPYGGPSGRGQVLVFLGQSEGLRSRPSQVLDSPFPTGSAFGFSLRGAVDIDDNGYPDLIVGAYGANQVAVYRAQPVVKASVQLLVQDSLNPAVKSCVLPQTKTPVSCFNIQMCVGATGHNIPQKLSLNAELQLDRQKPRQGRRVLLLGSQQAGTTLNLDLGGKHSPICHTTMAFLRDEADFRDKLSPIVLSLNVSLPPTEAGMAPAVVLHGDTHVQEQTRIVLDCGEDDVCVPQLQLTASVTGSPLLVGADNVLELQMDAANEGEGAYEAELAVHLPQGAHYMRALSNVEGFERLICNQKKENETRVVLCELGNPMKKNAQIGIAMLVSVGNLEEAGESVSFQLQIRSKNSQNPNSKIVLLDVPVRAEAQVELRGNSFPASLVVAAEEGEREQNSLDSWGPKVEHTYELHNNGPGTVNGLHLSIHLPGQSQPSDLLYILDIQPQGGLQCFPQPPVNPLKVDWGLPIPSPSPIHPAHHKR
Chain of integrin αIIbβ3 (P08514 891-1039): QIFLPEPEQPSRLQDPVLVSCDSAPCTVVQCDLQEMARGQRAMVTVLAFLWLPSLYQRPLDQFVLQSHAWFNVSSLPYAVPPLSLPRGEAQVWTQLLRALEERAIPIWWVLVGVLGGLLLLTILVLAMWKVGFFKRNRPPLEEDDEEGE
Chain of integrin αIIbβ3 (P05106 27-788): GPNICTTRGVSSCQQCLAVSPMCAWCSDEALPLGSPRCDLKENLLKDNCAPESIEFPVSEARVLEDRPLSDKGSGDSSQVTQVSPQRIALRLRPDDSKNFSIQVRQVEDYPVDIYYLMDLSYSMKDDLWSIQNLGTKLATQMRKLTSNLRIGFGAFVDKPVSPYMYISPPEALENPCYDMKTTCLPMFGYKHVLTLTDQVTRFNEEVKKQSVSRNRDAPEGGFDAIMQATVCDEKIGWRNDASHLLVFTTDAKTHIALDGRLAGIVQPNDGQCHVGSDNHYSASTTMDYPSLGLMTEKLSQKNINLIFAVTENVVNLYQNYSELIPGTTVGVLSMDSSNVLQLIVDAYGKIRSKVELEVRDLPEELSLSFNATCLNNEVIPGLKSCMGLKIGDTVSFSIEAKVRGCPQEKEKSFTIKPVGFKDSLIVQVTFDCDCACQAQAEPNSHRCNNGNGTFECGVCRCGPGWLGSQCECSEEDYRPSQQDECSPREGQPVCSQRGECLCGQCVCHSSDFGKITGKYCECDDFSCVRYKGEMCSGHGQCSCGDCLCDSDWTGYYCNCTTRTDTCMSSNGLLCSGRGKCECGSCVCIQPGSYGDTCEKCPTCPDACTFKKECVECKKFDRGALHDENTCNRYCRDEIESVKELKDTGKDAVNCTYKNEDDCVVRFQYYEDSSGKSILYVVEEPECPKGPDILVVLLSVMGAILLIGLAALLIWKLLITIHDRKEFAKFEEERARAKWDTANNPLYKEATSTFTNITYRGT

IC50: 3.12 µM
Structure (SMILES): CCCC(=O)NC(Cc1ccc2cc(OCc3ccc(C(=N)N)cc3)ccc2c1)C(=O)O (stereo not shown) [ND-1, 2-butyramido-3-(6-((4-carbamimidoylbenzyl)oxy)naphthalen-2-yl)propanoic acid]
